The text below walks through data of US20260062387A1, “SALT-INDUCIBLE KINASE INHIBITOR COMPOUND AND PHARMACEUTICAL COMPOSITION INCLUDING THE SAME” (MITSUBISHI TANABE PHARMA CORPORATION, priority 2023, published 2026).

Assay type in all cases: biochemical
The target of one experiment is GST-tagged SIK3 (Homo sapiens (Human), UniProt Q9Y2K2). Description: SIK3 inhibition test (ADP-Glo Max Assay). Particulars: enzyme 100 nM, AMARA Peptide 100 μM, ATP 1 mM, 2 hours room temperature. Summed up:
(§1)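 ADP formed was detected by luciferase luminescence after a 2 h room-temperature reaction with 1 mM ATP, 5 mM MgCl2 and AMARA peptide at 200 μM (SIK1, SIK2) or 100 μM (SIK3). Final GST-enzyme levels were 20 nM SIK1, 3 nM SIK2 and 100 nM SIK3. IC50 came from 16-point concentration-response data.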

Another experiment deals with GST-tagged SIK1 (Homo sapiens (Human), UniProt P57059). Description: SIK1 inhibition test (ADP-Glo Max Assay). Particulars: enzyme 20 nM, AMARA Peptide 200 μM, ATP 1 mM, 2 hours room temperature. Summed up: as §1
Background: ADP-Glo turns the ADP formed in a reaction into a luminescent signal.

Another experiment addresses GST-tagged SIK2 (Homo sapiens (Human), UniProt Q9H0K1). Description: SIK2 inhibition test (ADP-Glo Max Assay). The note with it: enzyme 3 nM, AMARA Peptide 200 μM, ATP 1 mM, 2 hours room temperature. Summed up:
as §1

Each structure is given as a SMILES string.

GST-tagged SIK2, sequence (Q9H0K1 whole entry): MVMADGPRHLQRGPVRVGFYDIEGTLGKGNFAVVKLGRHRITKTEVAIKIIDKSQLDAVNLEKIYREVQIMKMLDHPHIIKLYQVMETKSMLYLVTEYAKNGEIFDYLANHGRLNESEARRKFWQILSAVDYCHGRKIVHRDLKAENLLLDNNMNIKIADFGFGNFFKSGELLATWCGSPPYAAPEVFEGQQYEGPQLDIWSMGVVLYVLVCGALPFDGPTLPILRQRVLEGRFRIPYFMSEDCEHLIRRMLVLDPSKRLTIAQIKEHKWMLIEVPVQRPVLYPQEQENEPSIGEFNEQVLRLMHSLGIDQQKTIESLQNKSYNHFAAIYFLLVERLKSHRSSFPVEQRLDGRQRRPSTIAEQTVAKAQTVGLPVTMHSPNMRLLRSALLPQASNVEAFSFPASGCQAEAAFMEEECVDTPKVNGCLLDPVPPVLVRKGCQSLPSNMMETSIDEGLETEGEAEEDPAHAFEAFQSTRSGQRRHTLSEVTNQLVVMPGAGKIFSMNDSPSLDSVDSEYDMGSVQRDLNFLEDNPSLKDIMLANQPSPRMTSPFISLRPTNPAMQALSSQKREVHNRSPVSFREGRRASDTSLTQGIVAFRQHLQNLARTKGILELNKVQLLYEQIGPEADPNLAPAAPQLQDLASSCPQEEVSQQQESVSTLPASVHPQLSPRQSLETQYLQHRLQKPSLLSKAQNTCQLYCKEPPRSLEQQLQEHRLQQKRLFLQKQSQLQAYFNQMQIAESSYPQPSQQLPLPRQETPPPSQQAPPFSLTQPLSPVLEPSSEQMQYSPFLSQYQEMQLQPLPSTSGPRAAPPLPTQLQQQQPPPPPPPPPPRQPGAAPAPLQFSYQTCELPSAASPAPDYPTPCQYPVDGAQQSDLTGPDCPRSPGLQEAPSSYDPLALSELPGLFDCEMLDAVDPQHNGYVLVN
GST-tagged SIK3, sequence (Q9Y2K2 whole entry): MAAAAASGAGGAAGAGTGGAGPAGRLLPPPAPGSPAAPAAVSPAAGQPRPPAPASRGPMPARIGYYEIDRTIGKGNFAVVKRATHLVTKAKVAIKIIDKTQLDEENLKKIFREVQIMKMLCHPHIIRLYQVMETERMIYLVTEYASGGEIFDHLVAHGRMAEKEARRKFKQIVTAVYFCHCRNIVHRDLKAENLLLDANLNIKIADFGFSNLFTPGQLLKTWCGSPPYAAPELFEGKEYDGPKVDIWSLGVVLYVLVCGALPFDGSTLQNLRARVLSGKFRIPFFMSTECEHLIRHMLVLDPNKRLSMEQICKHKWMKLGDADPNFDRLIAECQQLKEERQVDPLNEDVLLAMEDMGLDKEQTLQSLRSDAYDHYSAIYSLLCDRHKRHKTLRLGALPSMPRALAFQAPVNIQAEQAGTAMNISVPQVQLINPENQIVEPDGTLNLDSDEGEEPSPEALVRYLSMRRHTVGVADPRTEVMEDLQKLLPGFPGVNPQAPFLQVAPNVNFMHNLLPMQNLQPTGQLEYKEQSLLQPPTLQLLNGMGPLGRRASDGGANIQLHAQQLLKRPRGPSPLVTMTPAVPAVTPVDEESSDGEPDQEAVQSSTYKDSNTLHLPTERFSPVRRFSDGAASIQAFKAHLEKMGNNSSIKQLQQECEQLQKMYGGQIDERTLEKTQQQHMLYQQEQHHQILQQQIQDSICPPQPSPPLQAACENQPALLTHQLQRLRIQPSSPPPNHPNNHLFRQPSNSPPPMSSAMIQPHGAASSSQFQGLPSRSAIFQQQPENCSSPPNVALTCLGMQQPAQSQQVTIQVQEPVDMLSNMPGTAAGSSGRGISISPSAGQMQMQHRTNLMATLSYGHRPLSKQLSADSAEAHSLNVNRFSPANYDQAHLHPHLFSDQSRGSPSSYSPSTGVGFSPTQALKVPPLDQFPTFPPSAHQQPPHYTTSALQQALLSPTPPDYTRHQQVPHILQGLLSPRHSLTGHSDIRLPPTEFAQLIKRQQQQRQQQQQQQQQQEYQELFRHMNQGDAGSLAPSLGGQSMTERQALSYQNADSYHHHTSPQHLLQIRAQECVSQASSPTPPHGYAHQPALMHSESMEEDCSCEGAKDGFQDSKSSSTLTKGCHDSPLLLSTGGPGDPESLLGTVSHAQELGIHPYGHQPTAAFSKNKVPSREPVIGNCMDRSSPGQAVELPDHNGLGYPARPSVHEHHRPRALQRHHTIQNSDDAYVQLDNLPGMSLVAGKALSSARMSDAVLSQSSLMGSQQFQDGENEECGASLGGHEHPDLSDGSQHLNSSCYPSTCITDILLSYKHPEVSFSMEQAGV
GST-tagged SIK1, sequence (P57059 whole entry): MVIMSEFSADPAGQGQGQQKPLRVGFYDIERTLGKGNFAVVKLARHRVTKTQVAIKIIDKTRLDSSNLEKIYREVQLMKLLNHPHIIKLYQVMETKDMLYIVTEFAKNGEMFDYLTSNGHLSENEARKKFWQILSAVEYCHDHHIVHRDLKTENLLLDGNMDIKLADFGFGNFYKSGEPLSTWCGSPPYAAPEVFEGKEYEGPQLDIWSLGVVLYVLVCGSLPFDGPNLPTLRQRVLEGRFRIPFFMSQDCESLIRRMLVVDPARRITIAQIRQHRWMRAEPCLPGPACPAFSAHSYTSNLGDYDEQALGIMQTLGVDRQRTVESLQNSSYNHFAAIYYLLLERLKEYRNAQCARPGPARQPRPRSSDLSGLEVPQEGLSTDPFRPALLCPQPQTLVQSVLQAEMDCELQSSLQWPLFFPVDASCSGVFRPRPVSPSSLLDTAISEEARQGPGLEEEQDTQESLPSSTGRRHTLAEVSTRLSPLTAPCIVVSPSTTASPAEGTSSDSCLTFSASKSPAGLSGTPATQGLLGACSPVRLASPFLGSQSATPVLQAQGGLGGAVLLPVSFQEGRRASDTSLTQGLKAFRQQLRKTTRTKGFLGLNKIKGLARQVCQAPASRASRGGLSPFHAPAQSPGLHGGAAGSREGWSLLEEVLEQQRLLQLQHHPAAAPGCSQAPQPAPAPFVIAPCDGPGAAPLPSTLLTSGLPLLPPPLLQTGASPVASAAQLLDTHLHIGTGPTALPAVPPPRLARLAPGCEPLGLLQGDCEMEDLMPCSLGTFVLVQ

As to `COc1cc(-c2c3c(C#N)cc(-c4cnn(C(C)C)c4)cc3nn2C)cc2c1C(=O)NC[C@@H]2C` (single isomer, unassigned) [Example 167], the results for the IC50 against GST-tagged SIK3, at GST-tagged SIK1 and at GST-tagged SIK2 were 4.1 nM, 8.5 nM and 1.7 nM, respectively.

Regarding `COc1cc(-c2c3c(C#N)cc(-c4cnn(CC5CCS5(=O)=O)c4)cc3nn2C)cc(OC(F)F)c1C(=O)NCC1(F)CC1` (stereo not drawn) [Example 81, 4-[4-cyano-6-[1-[(1,1-dioxothietan-2-yl)methyl]pyrazol-4-yl]-2-methylindazol-3-yl]-2-(difluoromethoxy)-N-[(1-fluorocyclopropyl)methyl]-6-methoxybenzamide], the figures for the IC50 against GST-tagged SIK3, at GST-tagged SIK1 and on GST-tagged SIK2 were 10.6 nM, 13.3 nM and 7.3 nM, respectively.

Regarding `COc1cc(-c2c3c(C#N)cc(-c4cnn(CCC(C)(C)O)c4)cc3nn2C)cc(OC(F)F)c1C(=O)N[C@@H]1CC1(F)F` [Example 111, 4-[4-cyano-6-[1-(3-hydroxy-3-methylbutyl)pyrazo]-4-yl]-2-methylindazol-3-yl]-N-[(1R)-2,2-difluoro[cyclopropyl]-2-(difluoromethoxy)-6-methoxybenzamide], the half-inhibitory concentration (IC50) – broadly, the concentration at which inhibition is half-maximal – at GST-tagged SIK3 worked out at 1.7 nM; on GST-tagged SIK1, 6.2 nM; against GST-tagged SIK2 it was 1.7 nM.

Consider `COc1cc(-c2c3c(C#N)cc(-c4cnn(CC5CCCO5)c4)cc3nn2C)cc(OC(F)F)c1C(=O)NCC1(F)CC1` (stereo not drawn) [Example 79, 4-[4-cyano-2-methyl-6-[1-(oxolan-2-ylmethyl)pyrazol-4-yl]indazol-3-yl]-2-(difluoromethoxy)-N-[(1-fluorocyclopropyl)methyl]-6-methoxybenzamide], for which the results for the half-inhibitory concentration (IC50) against GST-tagged SIK3, against GST-tagged SIK1 and against GST-tagged SIK2 were 8.1 nM, 12.5 nM and 6.8 nM, respectively.

In the case of `COc1cc(-c2c3c(C#N)cc(-c4cnn(CCN5CCOCC5)c4)cc3nn2C)cc(OC(F)F)c1C(=O)NC[C@@H]1CC1(F)F` (single isomer, unassigned) [Example 85], the concentration for half-maximal inhibition (IC50) on GST-tagged SIK3 was 8.6 nM; on GST-tagged SIK1 it was 9.9 nM; on GST-tagged SIK2 it was 7.1 nM.

For the compound `COc1cc(-c2c3c(OCCCCO)cc(-c4cnn(C)c4)cc3nn2C)cc(OC(F)F)c1C(=O)N1CC(O)(C(F)(F)F)C1` [Example 44, [2-(difluoromethoxy)-4-[4-(4-hydroxybutoxy)-2-methyl-6-(1-methylpyrazol-4-yl)indazol-3-yl]-6-methoxyphenyl]-[3-hydroxy-3-(trifluoromethyl)azetidin-1-yl]methanone], the half-inhibitory concentration (IC50) was 15.5 nM against GST-tagged SIK3, 6.7 nM against GST-tagged SIK1 and 8.4 nM on GST-tagged SIK2.

As for `COc1cc(-c2c3c(C#N)cc(-c4cnn(C[C@@H](C)O)c4)cc3nn2C)cc(OC(F)F)c1C(=O)N[C@@H]1CC1(F)F` [Example 153, 4-[4-cyano-6-[1-[(2R)-2-hydroxypropyl]pyrazol-4-yl]-2-methylindazol-3-yl]-N-[(1R)-2,2-difluorocyclopropyl]-2-(difluoromethoxy)-6-methoxybenzamide], the half-maximal inhibitory concentration (IC50) against GST-tagged SIK3 stood at 2.7 nM; against GST-tagged SIK1, 8.5 nM; on GST-tagged SIK2 it was 1.8 nM.

In the case of `CCn1cc(-c2cc(C#N)c3c(-c4cc(OC)c5c(c4)C(C)(C)CNC5=O)n(C)nc3c2)cn1` [Example 139, 6-(1-ethylpyrazol-4-yl)-3-(8-methoxy-4,4-dimethyl-1-oxo-2,3-dihydroisoquinolin-6-yl)-2-methylindazole-4-carbonitrile], the concentration for half-maximal inhibition (IC50) stood at 12.8 nM at GST-tagged SIK3, 9 nM against GST-tagged SIK1 and 8.6 nM against GST-tagged SIK2.

Turning to `COc1cc(-c2c3c(C(F)F)cc(-c4cnn(C)c4)cc3nn2C)cc(OC(F)F)c1C(=O)N1CC(O)(C(F)F)C1` [Example 38, [2-(difluoromethoxy)-4-[4-(difluoromethyl)-2-methyl-6-(1-methylpyrazol-4-yl)indazol-3-yl]-6-methoxyphenyl]-[3-(difluoromethyl)-3-hydroxyazetidin-1-yl]methanone], the results for the IC50 against GST-tagged SIK3, against GST-tagged SIK1 and against GST-tagged SIK2 were 10.1 nM, 16.8 nM and 13.8 nM, respectively.

For the compound `COc1cc(-c2c3c(C#N)cc(-c4cnn(CCC(C)(C)O)c4)cc3nn2C)cc(OC(F)F)c1C(=O)NCC1(F)CC1` [Example 90], the values for the half-maximal inhibitory concentration (IC50) on GST-tagged SIK3, against GST-tagged SIK1 and at GST-tagged SIK2 were 7.9 nM, 17.8 nM and 10.4 nM, respectively.

With `COc1cc(-c2c3c(C#N)cc(-c4cnn(CCC5(O)CCC5)c4)cc3nn2C)cc(OC(F)F)c1C(N)=O` [Example 137, 4-[4-cyano-6-[1-[2-(1-hydroxycyclobutyl)ethyl]pyrazol-4-yl]-2-methylindazol-3-yl]-2-(difluoromethoxy)-6-methoxybenzamide], the IC50 against GST-tagged SIK3 worked out at 4.7 nM; at GST-tagged SIK1, 11.6 nM; against GST-tagged SIK2, 5.8 nM.

Consider `COc1cc(-c2c3c(C#N)cc(-c4cnn(C)c4)cc3nn2C)cc(OC(F)F)c1C(=O)NCC1CC1(F)F` (stereo not drawn) [Example 10], for which the concentration for half-maximal inhibition (IC50) on GST-tagged SIK3 came to 6.3 nM; against GST-tagged SIK1, 13.8 nM; on GST-tagged SIK2, 7.3 nM.

In the case of `COCCn1cc(-c2cc(C#N)c3c(-c4cc(OC)c5c(c4)[C@@H](C)CNC5=O)n(C)nc3c2)cn1` (single isomer, unassigned) [Example 127], the IC50 on GST-tagged SIK3 was 7.6 nM; against GST-tagged SIK1, 6.9 nM; at GST-tagged SIK2, 1.3 nM.

Turning to `COc1cc(-c2c3c(OCc4ccc(C)nc4)cc(-c4cnn(C)c4)cc3nn2C)cc(OC(F)F)c1C(=O)N1CC(O)(C(F)(F)F)C1` [Example 50, [2-(difluoromethoxy)-6-methoxy-4-[2-methyl-6-(1-methylpyrazol-4-yl)-4-[(6-methylpyridin-3-yl)methoxy]indazol-3-yl]phenyl]-[3-hydroxy-3-(trifluoromethyl)azetidin-1-yl]methanone], the half-inhibitory concentration (IC50) amounted to 17.1 nM against GST-tagged SIK3, 6.8 nM on GST-tagged SIK1 and 5 nM on GST-tagged SIK2.

Consider `COc1cc(-c2c3c(OC(F)F)cc(-c4cnn(C)c4)cc3nn2C)cc2c1C(=O)NC[C@@H]2C` (single isomer, unassigned) [Example 164], for which the half-maximal inhibitory concentration (IC50) on GST-tagged SIK3 stood at 19.7 nM; against GST-tagged SIK1, 7.1 nM; against GST-tagged SIK2, 2 nM.

`COc1cc(-c2c3c(C(F)F)cc(-c4cn[nH]c4)cc3nn2C)cc(OC(F)F)c1C(=O)N1CC(O)(C(F)(F)F)C1` [Example 68, [2-(difluoromethoxy)-4-[4-(difluoromethyl)-2-methyl-6-(1H-pyrazol-4-yl)indazol-3-yl]-6-methoxyphenyl]-[3-hydroxy-3-(trifluoromethyl)azetidin-1-yl]methanone]: the IC50 against GST-tagged SIK3 is 2.5 nM; at GST-tagged SIK1, 9.4 nM; against GST-tagged SIK2, 14.2 nM.

For the compound `COc1cc(-c2c3c(C#N)cc(-c4cnn(CC(F)F)c4)cc3nn2C)cc(OC(F)F)c1C(=O)N[C@@H]1CC1(F)F` [Example 115, 4-[4-cyano-6-[1-(2,2-difluoroethyl)pyrazol-4-yl]-2-methylindazol-3-yl]-N-[(1R)-2,2-difluorocyclopropyl]-2-(difluoromethoxy)-6-methoxybenzamide], the 50% inhibitory concentration (IC50) was less than 0.6 nM at GST-tagged SIK3, 9.4 nM on GST-tagged SIK1 and 2.4 nM at GST-tagged SIK2.

For `COCCn1cc(-c2cc(C#N)c3c(-c4cc(OC)c(C(N)=O)c(OC(F)F)c4)n(C)nc3c2)cn1` [Example 133, 4-[4-cyano-6-[1-(2-methoxyethyl)pyrazol-4-yl]-2-methylindazol-3-yl]-2-(difluoromethoxy)-6-methoxybenzamide], the IC50 against GST-tagged SIK3 was 4.9 nM; against GST-tagged SIK1, 13.6 nM; against GST-tagged SIK2, 2.1 nM.
